Measured values as given in paper PMC5432238, “Pre-clinical evaluation of small molecule LOXL2 inhibitors in breast cancer” (Oncotarget, 2017).

How the values were obtained:
recombinant LOXL2 = target: T1, recombinant LOXL2 (Homo sapiens, UniProt Q9Y4K0); experiment: Amplex Red activity/inhibition assay, recombinant LOXL2; assay type: biochemical; settings: putrescine substrate
T1 construct: purchased R&D Systems
T1 sequence (Q9Y4K0 26-774): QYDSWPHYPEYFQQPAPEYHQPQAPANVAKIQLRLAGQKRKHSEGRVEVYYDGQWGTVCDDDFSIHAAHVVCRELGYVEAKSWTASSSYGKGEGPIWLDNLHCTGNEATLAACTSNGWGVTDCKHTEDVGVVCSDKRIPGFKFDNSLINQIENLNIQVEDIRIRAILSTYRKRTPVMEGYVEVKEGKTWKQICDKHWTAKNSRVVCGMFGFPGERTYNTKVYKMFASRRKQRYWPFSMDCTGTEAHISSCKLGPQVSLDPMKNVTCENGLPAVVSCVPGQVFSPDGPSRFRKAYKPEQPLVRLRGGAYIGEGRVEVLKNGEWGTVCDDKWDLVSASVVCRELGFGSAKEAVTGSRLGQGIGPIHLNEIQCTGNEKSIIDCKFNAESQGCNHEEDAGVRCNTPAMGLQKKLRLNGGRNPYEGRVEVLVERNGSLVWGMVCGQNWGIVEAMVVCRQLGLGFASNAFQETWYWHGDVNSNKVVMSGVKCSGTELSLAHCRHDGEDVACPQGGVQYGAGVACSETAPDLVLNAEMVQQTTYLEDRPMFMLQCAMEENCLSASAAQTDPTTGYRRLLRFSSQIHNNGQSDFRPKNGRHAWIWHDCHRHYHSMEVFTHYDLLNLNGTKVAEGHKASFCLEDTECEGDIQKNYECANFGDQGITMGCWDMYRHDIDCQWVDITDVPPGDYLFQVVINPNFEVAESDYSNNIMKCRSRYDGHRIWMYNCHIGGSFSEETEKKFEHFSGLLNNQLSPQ
Procedure: (§1) The standard amplex red assay has been used as previously described using putrescine as a substrate and native ´fibroblast derived LOX, which was prepared by collecting the supernatant of IMR90 cells, followed by a size filtration > 10 kDa for concentration and < 50 kDa to separate from LOXL2, or recombinant LOXL2 as enzyme (R&D Systems).

native human LOX enzyme = target: T2, native human LOX enzyme (Homo sapiens, UniProt P28300); experiment: Amplex Red activity/inhibition assay, native fibroblast-derived LOX; assay type: biochemical; settings: native fibroblast (IMR90) derived LOX; putrescine substrate
T2 construct: fibroblast derived LOX, which was prepared by collecting the supernatant of IMR90 cells; endogenous in cells; host or cells: IMR90 cells (supernatant, size filtered > 10 kDa and < 50 kDa)
T2 sequence (P28300 169-417): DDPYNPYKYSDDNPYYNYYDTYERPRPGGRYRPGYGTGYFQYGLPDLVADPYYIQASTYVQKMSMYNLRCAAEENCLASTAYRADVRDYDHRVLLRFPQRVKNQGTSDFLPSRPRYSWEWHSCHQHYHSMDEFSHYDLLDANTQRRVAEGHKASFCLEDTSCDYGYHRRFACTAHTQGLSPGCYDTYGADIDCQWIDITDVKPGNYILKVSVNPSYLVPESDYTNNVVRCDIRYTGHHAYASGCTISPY
Procedure: as §1

N#CCCN [BAPN, β-aminopropionitrile]
pIC50 ± SD against recombinant LOXL2 enzyme (recombinant LOXL2): 6.4 ± 0.1 | pIC50 ± SD against native human LOX enzyme (native human LOX enzyme): 5.5 ± 0.1
